Here are results for three molecules from patent US20250052744A1, “Dyes and Uses Thereof” (The University of Liverpool, priority 2021, published 2025).

Test in all cases: Qualitative dye staining on agarose pads (EVOS M7000)
What all share (type): cell-based
Design in all cases: key to Relative fluorescent intensity: Very high: If the cells looked twice as big in the fluorescent channel, it was marked as having “very high” relative fluorescent intensity; High: if the cells looked bigger in the fluorescent channel, it was marked as having “high” relative fluorescent intensity; Medium: If the cells looked almost the same size in the fluorescent channel and the bright field, it was marked as having “medium” relative fluorescent intensity; Low: If the cells looked smaller in the fluorescent channel as compared to the brightfield but still the whole cell was visible, it was marked as having “low” relative fluorescent intensity; Negligible: If only a few traces of a cell was visible in the fluorescent channel, it was marked as having “negligible” relative fluorescent intensity

The subject of one test is Enterococcus spp. The settings on record: Table 6 thresholds, Entercoccus, DiSC3(5) 3 μM, SYBR Green I 10×, SYTO 13 3 μM, FM4-64 15 μM.
The next test relates to Cory. Urealyticum. Particulars: DiSC3(5) 3 μM, SYBR Green I 10×, SYTO 13 3 μM, FM4-64 15 μM.
The test system of a further test is Enterococcus faecium. The settings on record: DiSC3(5) 3 μM, SYBR Green I 10×, SYTO 13 3 μM, FM4-64 15 μM.
[1] abbreviates: Table 8 sample Cory. Urealyticum (1001).
Setting [2] is: Table 8 sample Cory. Urealyticum (1002).
The mark [3] stands for this setting: Table 7 commercial strain Enterococcus faecium NCTC 7171.
[4] abbreviates: Table 7 commercial strain Enterococcus faecium NCTC 13923.
The mark [5] stands for this setting: Table 8 sample Enterococcus faecium (011).
Setting [6] is: Table 8 sample Enterococcus faecium (012).
[7] abbreviates: Table 8 sample Enterococcus faecium (013).

In the case of `CCCN(CCCN(C)C)c1cc(/C=C2/Sc3ccccc3N2C)c2ccccc2[n+]1-c1ccccc1` [SYBR Green I, N′,N′-dimethyl-N-[4-[(E)-(3-methyl-1,3-benzothiazol-2-ylidene)methyl]-1-phenylquinolin-1-ium-2-yl]-N-propylpropane-1,3-diamine], the “Percentage of cells stained” value in the test on Enterococcus spp. is on record as “Almost all”; in the test with Cory. Urealyticum (setting [1]), “Few”; with Cory. Urealyticum (setting [2]), “Few”; with Enterococcus faecium (setting [3]), “Almost all”; in the test on Enterococcus faecium (setting [4]) it was “Almost all”; in the test with Enterococcus faecium (setting [5]), “Almost all”. For the same molecule, the “Percentage of cells stained” value in the test on Enterococcus faecium (setting [6]) and with Enterococcus faecium (setting [7]) was “Almost all” in each case. The Relative fluorescent intensity result in the test with Enterococcus spp. is recorded as “medium to high”; with Enterococcus spp. (listed as SYBR Green), “Medium-High”; in the test with Cory. Urealyticum (setting [1]) it was “Negligible”; with Cory. Urealyticum (setting [2]) it was “Negligible”; in the test on Enterococcus faecium (setting [3]), “High”; in the test on Enterococcus faecium (setting [4]), “High”. The Relative fluorescent intensity entry in the test on Enterococcus faecium (setting [5]), in the test on Enterococcus faecium (setting [6]) and in the test with Enterococcus faecium (setting [7]) was “High” each time.
On to `CCN(CC)c1ccc(C=CC=CC=Cc2cc[n+](CCC[N+](CC)(CC)CC)cc2)cc1.[Br-].[Br-]` [FM 4-64, N-(3-Triethylammoniumpropyl)-4-(6-(4-(Diethylamino) Phenyl) Hexatrienyl) Pyridinium Dibromide], for which the “Percentage of cells stained” value in the test on Enterococcus spp. was “Almost all”; with Cory. Urealyticum (setting [1]), “Few”; with Cory. Urealyticum (setting [2]), “Few”; with Enterococcus faecium (setting [3]), “Half”; in the test on Enterococcus faecium (setting [4]) it was “Half”; with Enterococcus faecium (setting [5]), “Half”. Moreover, the results for the “Percentage of cells stained” value with Enterococcus faecium (setting [6]) and in the test on Enterococcus faecium (setting [7]) were “Half” and “Almost all”, respectively. Besides, the Relative fluorescent intensity entry in the test with Enterococcus spp. is reported as “medium”; in the test on Enterococcus spp. (listed as FM4-64), “Medium”; in the test with Cory. Urealyticum (setting [1]), “Negligible”; with Cory. Urealyticum (setting [2]) it was “Negligible”; in the test with Enterococcus faecium (setting [3]) it was “Medium”; in the test with Enterococcus faecium (setting [4]), “Medium”. In addition, the Relative fluorescent intensity entry with Enterococcus faecium (setting [5]), with Enterococcus faecium (setting [6]) and in the test on Enterococcus faecium (setting [7]) was “Medium” in each case.
Regarding `CCCN1C(=CC=CC=Cc2sc3ccccc3[n+]2CCC)Sc2ccccc21.[I-]` [DiSC3(5), 3,3′-Dipropylthiadicarbocyanine Iodide], the “Percentage of cells stained” value with Enterococcus spp. is on record as “Half”; in the test with Cory. Urealyticum (setting [1]) it was “Few”; in the test on Cory. Urealyticum (setting [2]), “Few”; in the test with Enterococcus faecium (setting [3]), “Almost all”; in the test on Enterococcus faecium (setting [4]), “Almost all”; in the test on Enterococcus faecium (setting [5]) it was “Almost all”. In addition, the “Percentage of cells stained” value is recorded as “Almost all” in the test with Enterococcus faecium (setting [6]) and “Half” with Enterococcus faecium (setting [7]). In addition, the Relative fluorescent intensity entry in the test with Enterococcus spp. was “low and Low”; in the test with Cory. Urealyticum (setting [1]), “Negligible”; in the test with Cory. Urealyticum (setting [2]) it was “Negligible”; in the test with Enterococcus faecium (setting [3]), “Low”; with Enterococcus faecium (setting [4]) it was “Low”; in the test with Enterococcus faecium (setting [5]), “Low”. Moreover, the Relative fluorescent intensity entry in the test with Enterococcus faecium (setting [6]) and in the test with Enterococcus faecium (setting [7]) was “Low” each time.
